Measurements reported in US10259807B2, “1-(piperazin-1-yl)-2-([1,2,4]triazol-1-yl)-ethanone derivatives” (Idorsia Pharmaceuticals Ltd., priority 2013, dated 2019).

Key:
[1] = target: T1, human CXCR3A (Homo sapiens, UniProt P49682); experiment: FLIPR assay (CXCL10-induced calcium signal in CHO-K1 cells); assay type: cell-based; details: CHO-K1 cells expressing human CXCR3A coupled to Galpha(16); CXCL10 agonist 20 nM; mean values
T1 construct: expressed in transfected cells; host or cells: CHO-K1
T1 sequence (P49682 1-368): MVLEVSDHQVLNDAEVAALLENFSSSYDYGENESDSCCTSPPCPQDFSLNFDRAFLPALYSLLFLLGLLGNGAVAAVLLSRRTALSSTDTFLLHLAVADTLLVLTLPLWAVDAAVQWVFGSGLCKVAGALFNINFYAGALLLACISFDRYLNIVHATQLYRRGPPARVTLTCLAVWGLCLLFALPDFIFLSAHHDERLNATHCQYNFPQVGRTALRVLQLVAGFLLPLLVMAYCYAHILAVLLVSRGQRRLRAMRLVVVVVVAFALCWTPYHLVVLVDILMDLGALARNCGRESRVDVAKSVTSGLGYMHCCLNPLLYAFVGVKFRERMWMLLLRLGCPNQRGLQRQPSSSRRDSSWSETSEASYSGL
Procedure: A) FLIPR assay: The bioactivity of compounds is tested in a fluorometric imaging plate reader (FLIPR: Molecular Devices) using engineered CHO-K1 cells expressing the human CXCR3A (GenBank: AY242128) coupled to a G protein (Galpha(16)). Cells are plated the day prior to bioassay in F12 medium supplemented with 10% FBS and G418 and hygromycin antibiotics to maintain recombinant selection. […] Cells are washed free of excess dye and 60 microliter of wash buffer is added. Stock solutions of test compounds are made up at a concentration of 10 mM in DMSO, and serially diluted in dilution buffer to concentrations required for inhibition dose response curves. After a 10 minute incubation period at 37° C., 10 microliters of each compound dilution are transferred from a compound plate to the plate containing the recombinant cells in the FLIPR instrument according to the manufacturer's instructions. Following basal readings, 10 microliter CXCL10 agonist at a concentration of 20 nM (from Peprotech) is added, again using the FLIPR instrument. Changes in fluorescence are monitored before and after addition of the test compounds. Emission peak values above base level after CXCL10 addition are exported after base line subtraction. The program XLfit is used to fit the data to a single site dose response curve and to calculate IC50 values. The calculated IC50 values may fluctuate depending on the daily assay performance. Fluctuations of this kind are known to those skilled in the art.

[2] = target: T2, hERG K channel (Homo sapiens, UniProt Q12809); experiment: hERG Q-Patch assay; assay type: cell-based; details: CHO cells expressing hERG, K+ tail current 3 min after application, mean of two or three experiments
T2 construct: host or cells: CHO
Procedure: B) hERG Q-Patch assay: Compounds are evaluated for block of the hERG K channel using CHO cells stably expressing the hERG gene (accession number U04270, bSys, Witterswil. Switzerland) and the Patch robotic platform (Sophion, Ballerup, Denmark) in single-cell mode at room temperature. […] When the cells are ˜80% confluent (every 2-3 days), they are either split for further culture or used for electrophysiology. […] Cells are kept in suspension medium at 32-35° C. in the QPatch robot until use, at which time aliquots are transferred to the extracellular solution (in mM: NaCl 150; KCl 4; CaCl2 1.2; MgCl2 1; HEPES 10; pH 7.4 with NaOH) containing 0.3% v/v DMSO and applied to the test plates. K^+ currents are measured with the patch-voltage-clamp technique in the whole-cell configuration with the internal solution (in […]: KCl, 140; NaCl, 10; MgCl2, 1; HEPES, 10; EGTA, 5; pH=7.2 with KOH). […] K^+tail currents are produced from a holding voltage of −80 mV by a 500-ms depolarization to +20 mV followed by a 500-ms repolarization to −40 mV; tail current amplitudes are measured at the end of the repolarization to −40 mV. The pulse pattern is repeated every 10 sec during the experiment, baseline K^+ current is measured after 3 min in extracellular solution, test-solution containing compound is then applied, and K^+ current in presence of compound is measured 3 minutes after application to the cells.

T2 sequence (Q12809 whole entry): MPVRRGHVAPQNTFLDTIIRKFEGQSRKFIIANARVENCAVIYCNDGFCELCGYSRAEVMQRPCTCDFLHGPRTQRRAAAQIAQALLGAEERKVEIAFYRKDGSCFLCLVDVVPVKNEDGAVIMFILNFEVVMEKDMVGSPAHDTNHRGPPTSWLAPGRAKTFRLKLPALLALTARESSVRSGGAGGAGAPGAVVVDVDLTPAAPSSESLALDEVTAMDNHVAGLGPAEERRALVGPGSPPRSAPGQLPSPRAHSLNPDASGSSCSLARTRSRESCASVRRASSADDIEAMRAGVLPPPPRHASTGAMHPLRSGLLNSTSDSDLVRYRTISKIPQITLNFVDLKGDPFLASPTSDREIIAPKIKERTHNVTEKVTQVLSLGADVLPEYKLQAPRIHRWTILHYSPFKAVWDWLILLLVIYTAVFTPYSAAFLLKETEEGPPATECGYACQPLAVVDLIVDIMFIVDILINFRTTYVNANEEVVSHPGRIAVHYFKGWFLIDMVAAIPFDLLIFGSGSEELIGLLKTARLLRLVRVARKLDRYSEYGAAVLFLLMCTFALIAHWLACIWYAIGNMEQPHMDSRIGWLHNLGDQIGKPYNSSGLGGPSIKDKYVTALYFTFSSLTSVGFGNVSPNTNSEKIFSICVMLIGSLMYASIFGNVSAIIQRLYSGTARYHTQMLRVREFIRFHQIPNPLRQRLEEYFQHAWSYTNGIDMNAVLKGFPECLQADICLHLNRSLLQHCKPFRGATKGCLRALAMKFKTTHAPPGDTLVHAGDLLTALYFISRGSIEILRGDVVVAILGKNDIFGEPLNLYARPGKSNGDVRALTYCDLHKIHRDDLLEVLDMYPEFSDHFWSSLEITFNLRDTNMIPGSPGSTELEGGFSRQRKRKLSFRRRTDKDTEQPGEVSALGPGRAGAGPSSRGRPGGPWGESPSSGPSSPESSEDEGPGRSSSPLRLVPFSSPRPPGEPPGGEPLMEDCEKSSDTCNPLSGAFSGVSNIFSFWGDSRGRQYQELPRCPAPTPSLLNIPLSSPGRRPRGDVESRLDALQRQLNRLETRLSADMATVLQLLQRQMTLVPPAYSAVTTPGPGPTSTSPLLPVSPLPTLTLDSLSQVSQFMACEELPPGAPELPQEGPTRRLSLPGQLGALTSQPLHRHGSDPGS

SMILES	IC50 [1]	% block ([2]; concentration 300 nM)	% block ([2]; concentration 3000 nM)
CCc1nc(C)nn1CC(=O)N1CCN(c2sc(C(F)(F)F)nc2-c2cnc(C(F)(F)F)nc2)C[C@H]1C (single isomer, unassigned) [Example 47]	3.5 nM	5%	18%
CCOc1ncc(-c2nc(C(F)(F)F)sc2N2CCN(C(=O)Cn3nc(C)nc3CC)[C@H](C)C2)cn1 (single isomer, unassigned) [Example 19]	8.5 nM	4%	12%
COCCOc1ncc(-c2nc(C(F)(F)F)sc2N2CCN(C(=O)Cn3nc(C)nc3C)[C@H](C)C2)cn1 [Example 25, 2-(3,5-Dimethyl-[1,2,4]triazol-1-yl)-1-((R)-4-{4-[2-(2-methoxy-ethoxy)-pyrimidin-5-yl]-2-trifluoromethyl-thiazol-5-yl}-2-methyl-piperazin-1-yl)-ethanone]	6.8 nM	−1%	1%
COc1ccc(-c2nc(C(F)(F)F)sc2N2CCN(C(=O)Cn3nc(C)nc3C)[C@H](C)C2)cc1 [Example 1, 2-(3,5-Dimethyl-[1,2,4]triazol-1-yl)-1-{(R)-4-[4-(4-methoxy-phenyl)-2-trifluoromethyl-thiazol-5-yl]-2-methyl-piperazin-1-yl}-ethanone]	111 nM	4%	13%
COc1ccc(-c2nc(C(F)(F)F)sc2N2CCN(C(=O)Cn3nc(C)nc3C)[C@H](C)C2)cc1C [Example 12, 2-(3,5-Dimethyl-[1,2,4]triazol-1-yl)-1-{(R)-4-[4-(4-methoxy-3-methyl-phenyl)-2-trifluoromethyl-thiazol-5-yl]-2-methyl-piperazin-1-yl}-ethanone]	25 nM	6%	27%
Cc1ccc(-c2nc(C(F)(F)F)sc2N2CCN(C(=O)Cn3nc(C)nc3C)[C@H](C)C2)cc1 [Example 8, 2-(3,5-Dimethyl-[1,2,4]triazol-1-yl)-1-[(R)-2-methyl-4-(4-p-tolyl-2-trifluoromethyl-thiazol-5-yl)-piperazin-1-yl]-ethanone]	28 nM	22%	61%
CCc1nc(C)n(CC(=O)N2CCN(c3sc(C(F)(F)F)nc3-c3cnc(C(F)(F)F)nc3)C[C@H]2C)n1 (single isomer, unassigned) [Example 46]	1.6 nM	13%	29%
Cc1nc(C)n(CC(=O)N2CCN(c3sc(C(F)(F)F)nc3-c3cnc(CCN(C)C)nc3)C[C@H]2C)n1 [Example 42, 1-((R)-4-{4-[2-(2-Dimethylamino-ethyl)-pyrimidin-5-yl]-2-trifluoromethyl-thiazol-5-yl}-2-methyl-piperazin-1-yl)-2-(3,5-dimethyl-[1,2,4]triazol-1-yl)-ethanone]	91 nM	−3%	0%
CCOc1ncc(-c2nc(C(F)(F)F)sc2N2CCN(C(=O)Cn3nc(C)nc3C)[C@@H](C)C2)cn1 [Example 34, 2-(3,5-Dimethyl-[1,2,4]triazol-1-yl)-1-{(S)-4-[4-(2-ethoxy-pyrimidin-5-yl)-2-trifluoromethyl-thiazol-5-yl]-2-methyl-piperazin-1-yl}-ethanone]	5.7 nM	3%	4%
Cc1nc(C)n(CC(=O)N2CCN(c3sc(C(F)(F)F)nc3-c3cnc4c(c3)CCCO4)C[C@H]2C)n1 [Example 39, 1-{(R)-4-[4-(3,4-Dihydro-2H-pyrano[2,3-b]pyridin-6-yl)-2-trifluoromethyl-thiazol-5-yl]-2-methyl-piperazin-1-yl}-2-(3,5-dimethyl-[1,2,4]triazol-1-yl)-ethanone]	31 nM	3%	15%
Cc1nc(C)n(CC(=O)N2CCN(c3sc(C(F)(F)F)nc3-c3ccc(F)cc3)C[C@H]2C)n1 [Example 6, 2-(3,5-Dimethyl-[1,2,4]triazol-1-yl)-1-{(R)-4-[4-(4-fluoro-phenyl)-2-trifluoromethyl-thiazol-5-yl]-2-methyl-piperazin-1-yl}-ethanone]	64 nM	11%	51%
Cc1nc(C)n(CC(=O)N2CCN(c3sc(C(F)(F)F)nc3-c3cnc(OC4COC4)nc3)C[C@H]2C)n1 [Example 30, 2-(3,5-Dimethyl-[1,2,4]triazol-1-yl)-1-((R)-2-methyl-4-{4-[2-(oxetan-3-yloxy)-pyrimidin-5-yl]-2-trifluoromethyl-thiazol-5-yl}-piperazin-1-yl)-ethanone]	22 nM	1%	6%
Cc1nc(C)n(CC(=O)N2CCN(c3sc(C(F)(F)F)nc3-c3ccc(OCC(F)(F)F)cc3)C[C@H]2C)n1 [Example 4, 2-(3,5-Dimethyl-[1,2,4]triazol-1-yl)-1-((R)-2-methyl-4-{4-[4-(2,2,2-trifluoro-ethoxy)-phenyl]-2-trifluoromethyl-thiazol-5-yl}-piperazin-1-yl)-ethanone]	12 nM	25%	54%
CCOc1ccc(-c2nc(C(F)(F)F)sc2N2CCN(C(=O)Cn3nc(C)nc3C)[C@H](C)C2)cc1 [Example 31, 2-(3,5-Dimethyl-[1,2,4]triazol-1-yl)-1-{(R)-4-[4-(4-ethoxy-phenyl)-2-trifluoromethyl-thiazol-5-yl]-2-methyl-piperazin-1-yl}-ethanone]	10 nM	6%	14%
CCc1ccc(-c2nc(C(F)(F)F)sc2N2CCN(C(=O)Cn3nc(C)nc3C)[C@H](C)C2)cc1 [Example 9, 2-(3,5-Dimethyl-[1,2,4]triazol-1-yl)-1-{(R)-4-[4-(4-ethyl-phenyl)-2-trifluoromethyl-thiazol-5-yl]-2-methyl-piperazin-1-yl}-ethanone]	36 nM	12%	44%
Cc1nc(C)n(CC(=O)N2CCN(c3sc(C(F)(F)F)nc3-c3ccc4c(c3)CCCO4)C[C@H]2C)n1 [Example 21, 1-[(R)-4-(4-Chroman-6-yl-2-trifluoromethyl-thiazol-5-yl)-2-methyl-piperazin-1-yl]-2-(3,5-dimethyl-[1,2,4]triazol-1-yl)-ethanone]	4.7 nM	1%	12%
CCOc1ncc(-c2nc(C(F)(F)F)sc2N2CCN(C(=O)Cn3nc(C)nc3C)CC2)cn1 [Example 35, 2-(3,5-Dimethyl-[1,2,4]triazol-1-yl)-1-{4-[4-(2-ethoxy-pyrimidin-5-yl)-2-trifluoromethyl-thiazol-5-yl]-piperazin-1-yl}-ethanone]	4.6 nM	2%	4%
Cc1nc(C)n(CC(=O)N2CCN(c3sc(C(F)(F)F)nc3-c3ccc(OC(F)(F)F)cc3)C[C@H]2C)n1 [Example 3, 2-(3,5-Dimethyl-[1,2,4]triazol-1-yl)-1-{(R)-2-methyl-4-[4-(4-trifluoromethoxy-phenyl)-2-trifluoromethyl-thiazol-5-yl]-piperazin-1-yl}-ethanone]	9.8 nM	19%	60%
Cc1nc(C)n(CC(=O)N2CCN(c3sc(C(F)(F)F)nc3-c3cnc(N4CCN(C)CC4)nc3)C[C@H]2C)n1 [Example 37, 2-(3,5-Dimethyl-[1,2,4]triazol-1-yl)-1-((R)-2-methyl-4-{4-[2-(4-methyl-piperazin-1-yl)-pyrimidin-5-yl]-2-trifluoromethyl-thiazol-5-yl}-piperazin-1-yl)-ethanone]	4.8 nM	2%	4%
